Results: US9732092B2, “Substituted 2,3,4,5,7,9,13,13a-octahydropyrido[1′,2′:4,5]pyrazino[2,1-b][1,3]OXAZEPINES and methods for treating viral infections” (Gilead Sciences, Inc., priority 2012, dated 2017)

Assays:
[1] = Cytotoxicity (CC50) in MT4 cells, mock-infected; conditions: human
Procedure: (§1) For the antiviral assay utilizing MT4 cells, 0.4 μL of […] test concentration of 3-fold serially diluted compound in DMSO was added to 40 μL of cell growth medium (RPMI 1640, 10% FBS, 1% penicilline/Streptomycine, 1% L-Glutamine, 1% HEPES) in each well of 384-well assay plates (10 concentrations) in quidruplicate.
(§2) 1 mL aliquots of 2×10^6 MT4 cells are pre-infected for 1 and 3 hours respectively at 37° C. with 25 μL (MT4) or of either cell growth medium (mock-infected) or a fresh 1:250 dilution of an HIV-IIIb concentrated ABI stock (0.004 m.o.i. for MT4 cells). Infected and uninfected cells are diluted in cell growth medium and 35 μL of 2000 (for MT4) cells is added to each well of the assay plates.
(§3) Assay plates were then incubated in a 37° C. incubator. After 5 days of incubation, 25 μL of 2× concentrated CellTiter-GloT Reagent (catalog # G7573, Promega Biosciences, Inc., Madison, Wis.) was added to each well of the assay plate. Cell lysis was carried out by incubating at room temperature for 2-3 minutes, and then chemiluminescence was read using the Envision reader (PerkinElmer).

[2] = biological target: human PXR (NR1I2) (Homo sapiens (Human), UniProt O75469); assay: Human PXR activation assay (luciferase reporter gene, DPX2 cells); format: cell-based; conditions: relative to maximum fold induction by 10 or 20 μM rifampicin
Chain of human PXR (NR1I2) (O75469 whole entry): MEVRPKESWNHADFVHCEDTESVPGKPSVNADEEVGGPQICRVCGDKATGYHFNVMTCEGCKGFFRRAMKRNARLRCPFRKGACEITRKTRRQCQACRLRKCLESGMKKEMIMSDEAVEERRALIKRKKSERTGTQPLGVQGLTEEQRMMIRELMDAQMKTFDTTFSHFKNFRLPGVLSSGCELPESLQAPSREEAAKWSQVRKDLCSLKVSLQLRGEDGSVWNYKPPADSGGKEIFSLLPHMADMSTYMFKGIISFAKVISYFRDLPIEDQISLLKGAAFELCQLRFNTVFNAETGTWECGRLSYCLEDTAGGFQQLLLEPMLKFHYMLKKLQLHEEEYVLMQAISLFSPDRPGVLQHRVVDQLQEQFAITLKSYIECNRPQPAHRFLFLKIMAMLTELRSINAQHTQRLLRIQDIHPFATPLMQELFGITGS
Procedure: A stably transformed tumor cell line (DPX2) was plated on 96-well microtiter plates. DPX2 cells harbor the human PXR gene (NR1I2) and a luciferase reporter gene linked to two promoters identified in the human CYP3A4 gene, namely XREM and PXRE. […] The number of viable cells was determined and the reporter gene activity was assessed. Positive control: […]

[3] = Pharmacokinetic analysis following oral administration to beagle dogs; format: in vivo; conditions: beagle dog, 1 mg/kg
Procedure: Pharmacokinetic analysis was performed on various test compounds following intravenous or oral administration to beagle dogs.
For pharmacokinetic analysis of intravenously administered compounds, the test compounds were formulated in 5% Ethanol, 55% PEG 300, and 40% water at 0.1 mg/mL for IV infusion. For pharmacokinetic analysis of orally administered compounds, the test compounds were formulated as an aqueous suspension in 0.1% Tween 20, 0.5% HPMC LV100 in Di Water at 1 mg/kg.
Each dosing group consisted of 3 male, non-naïve purebred beagle dogs. At dosing, the animals weighed between 10 to 13 kg. The animals were fasted overnight prior to dose administration and up to 4 hr after dosing. For studies of intravenous administration, the test article was administered to the animals by intravenous infusion over 30 min. The rate of infusion was adjusted according to the body weight of each animal to deliver a dose of 0.5 mg/kg. […]
For pharmacokinetic analysis of orally administered compounds, serial venous blood samples (approximately 0.3 mL each) were taken from each animal at time points of 0, 0.25, 0.50, 1.0, 2.0, 4.0, 6.0, 8.0, 12.0 and 24.0 hours after dosing. Blood samples were collected, prepared and analyzed in a similar way to the intranveous studies described above. […]

[4] = system: MT4 cells; assay: Cytotoxicity (CC50) in MT4 cells, mock-infected; conditions: read-out: CC50 nM in MT-4; MT4 cells, 5 days, CellTiter-Glo
Procedure: as §1, §2, §3

[5] = MT4 cells, mock-infected (uninfected)

O=C(NCc1c(F)cc(F)cc1F)c1cn2c(c(O)c1=O)C(=O)N1[C@H]3CC[C@H](CC3)[C@@H]1C2 [Compound 102, (1S,4S,12aR)-7-hydroxy-6,8-dioxo-N-(2,4,6-trifluorobenzyl)-1,2,3,4,6,8,12, 12a-octahydro-1,4-ethanodipyrido[1,2-a:1′,2′-d]pyrazine-9-carboxamide]
CC50 at 5 days [1, 5]: 12 µM
Emax at 24 h, 15 µM [2]: 123%

O=C(NCc1c(F)cc(F)cc1F)c1cn2c(c(O)c1=O)C(=O)N1[C@H]3CC[C@H](CC3)[C@H]1C2 [Compound 101, (1R,4R,12aS)-7-hydroxy-6,8-dioxo-N-(2,4,6-trifluorobenzyl)-1,2,3,4,6,8,12,12a-octahydro-1,4-ethanodipyrido[1,2-a:1′,2′-d]pyrazine-9-carboxamide]
CC50 at 5 days [1, 5]: 11.6 µM

O=C(NCc1c(F)cc(F)cc1F)c1cn2c(c(O)c1=O)C(=O)N1[C@H]3CC[C@H](C3)O[C@@H]1C2 [Compound 42, (2R,5S,13aR)-8-hydroxy-7,9-dioxo-N-(2,4,6-trifluorobenzyl)-2,3,4,5,7,9,13,13a-octahydro-2,5-methanopyrido[1′,2′:4,5]pyrazino[2,1-b][1,3]oxazepine-10-carboxamide]
F (%) aqueous suspension [3]: 28.0%

O=C(NC1(c2ccc(F)cc2F)CCCCC1)c1cn2c(c(O)c1=O)C(=O)N1C(C2)O[C@H]2CC[C@@H]1C2 (stereo partly drawn) [Compound 34, (2S,5R)—N-(1-(2,4-difluorophenyl)cyclohexyl)-8-hydroxy-7,9-dioxo-2,3,4,5,7,9,13,13a-octahydro-2,5-methanopyrido[1′,2′:4, 5]pyrazino[2,1-b][1,3]oxazepine-10-carboxamide]
CC50 [4]: 3580 nM

O=C(NCc1ccc(F)cc1F)c1cn2c(c(O)c1=O)C(=O)N1[C@@H]3COC[C@@H](C3)O[C@H]1C2 (racemic) [50/51, N-(2,4-difluorobenzyl)-9-hydroxy-8,10-dioxo-2,3,5,6,8, 10,14,14a-octahydro-2,6-methanopyrido[1′,2′:4,5]pyrazino[2,1-b][1,6,3]dioxazocine-11-carboxamide]
CC50 at 5 days [1]: 37.2 µM
